According to patent publication US20260176267A1, “PREPARATION OF IMIDAZOPYRIDINE AND IMIDAZOPYRIDAZINE DERIVATIVES AS NOVEL DIACYLGLYCERIDE O-ACYLTRANSFERASE 2 INHIBITORS” (Merck Sharp & Dohme LLC, priority 2022, published 2026):

The compounds below were run against T1, human DGAT2 (hDGAT2) (Homo sapiens, UniProt Q96PD7) (assay: DGAT2 Enzymatic Activity Assay). Conditions: membrane prep of Sf-9 cells expressing hDGAT2; 13C18-triolein product by LC/MS/MS; 25 μM diolein, 5 μM 13C oleoyl-CoA, rt.
T1 construct: made in house; host or cells: Sf-9 insect cells (baculovirus), membrane fraction
T1 sequence (Q96PD7 1-388): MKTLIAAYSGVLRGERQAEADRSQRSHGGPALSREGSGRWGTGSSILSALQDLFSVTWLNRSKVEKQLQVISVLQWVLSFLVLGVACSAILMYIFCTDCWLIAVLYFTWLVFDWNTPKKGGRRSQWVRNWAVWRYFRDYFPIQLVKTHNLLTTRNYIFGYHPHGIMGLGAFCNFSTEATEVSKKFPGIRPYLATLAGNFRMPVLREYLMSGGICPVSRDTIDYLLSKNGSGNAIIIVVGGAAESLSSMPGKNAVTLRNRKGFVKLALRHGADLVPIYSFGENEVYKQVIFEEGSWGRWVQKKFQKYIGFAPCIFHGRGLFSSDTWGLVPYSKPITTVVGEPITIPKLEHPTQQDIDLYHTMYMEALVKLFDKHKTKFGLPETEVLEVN
Format: biochemical
In short: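 Membranes from Sf-9 cells expressing untagged human DGAT2 (baculovirus, 48 h) used as enzyme at rt. The product ^13C18-triolein is quantified by LC/MS/MS against a ^13C21-triolein internal standard. Percent inhibition is taken from high and low controls, and IC50 is derived.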

SMILES	IC50 [µM]
Cc1cc(Oc2ncc(Cl)cc2OCC(F)F)nn2cc(C(=O)NC3(C)CS(=O)(=O)C3)nc12 [Example 172, 6-[[5-chloro-3-(2,2-difluoroethoxy)-2-pyridyl]oxy]-8-methyl-N-(3-methyl-1,1-dioxo-thietan-3-yl)imidazo[1,2-b]pyridazine-2-carboxamide]	0.03
CC1(NC(=O)c2nc3ccc(Oc4ncc(Cl)cc4OCC(F)F)nn3c2Cl)CS(=O)(=O)C1 [Example 176, 3-chloro-6-[[5-chloro-3-(2,2-difluoroethoxy)-2-pyridyl]oxy]-N-(3-methyl-1,1-dioxo-thietan-3-yl)imidazo[1,2-b]pyridazine-2-carboxamide]	0.024
CC1(NC(=O)c2nc3cc(Cl)c(Oc4nccnc4OCC(F)(F)F)nn3c2Cl)CCS(=O)(=O)CC1 [Example 177, 3,7-dichloro-N-(4-methyl-1,1-dioxo-thian-4-yl)-6-[3-(2,2,2-trifluoroethoxy)pyrazin-2-yl]oxy-imidazo[1,2-b]pyridazine-2-carboxamide]	0.391
CC1(NC(=O)c2nc3ccc(Oc4nccnc4OCC(F)(F)F)nn3c2Cl)CCS(=O)(=O)CC1 [Example 178, 3-chloro-N-(4-methyl-1,1-dioxo-thian-4-yl)-6-[3-(2,2,2-trifluoroethoxy)pyrazin-2-yl]oxy-imidazo[1,2-b]pyridazine-2-carboxamide]	4
CC1(NC(=O)c2nc3cc(Cl)c(Oc4ncc(Cl)cc4OCC(F)(F)F)nn3c2Cl)CS(=O)(=O)C1 [Example 179, 3,7-dichloro-6-[[5-chloro-3-(2,2,2-trifluoroethoxy)-2-pyridyl]oxy]-N-(3-methyl-1,1-dioxo-thietan-3-yl)imidazo[1,2-b]pyridazine-2-carboxamide]	0.101
CC1(NC(=O)c2cn3nc(OCc4ncc(Cl)cc4OCC(F)F)ccc3n2)CCS(=O)(=O)CC1 [Example 180, 6-((5-Chloro-3-(2,2-difluoroethoxy)pyridin-2-yl)methoxy)-N-(4-methyl-1,1-dioxidotetrahydro-2H-thiopyran-4-yl)imidazo[1,2-b]pyridazine-2-carboxamide]	0.053
CC1(NC(=O)c2cn3nc(OCc4c(F)cccc4OC(F)F)ccc3n2)CCS(=O)(=O)CC1 [Example 181, 6-[[2-(Difluoromethoxy)-6-fluoro-phenyl]methoxy]-N-(4-methyl-1,1-dioxo-thian-4-yl)imidazo[1,2-b]pyridazine-2-carboxamide]	0.025
Cc1cn(C)nc1COc1ccc2nc(C(=O)NC3(C)CCS(=O)(=O)CC3)cn2n1 [Example 183, 6-((1,4-dimethyl-1H-pyrazol-3-yl)methoxy)-N-(4-methyl-1,1-dioxidotetrahydro-2H-thiopyran-4-yl)imidazo[1,2-b]pyridazine-2-carboxamide]	0.808
CCOc1ccccc1Oc1ccc2nc(C(=O)N[C@H]3CCOC3)cn2c1 [Example 184, (S)-6-(2-ethoxyphenoxy)-N-(tetrahydrofuran-3-yl)imidazo[1,2-a]pyridine-2-carboxamide]	6.34
CC1(NC(=O)c2cn3cc(Oc4ncc(Cl)cc4OCC(F)(F)F)cnc3n2)CCS(=O)(=O)CC1 [Example 186, 6-((5-Chloro-3-(2,2,2-trifluoroethoxy)pyridin-2-yl)oxy)-N-(4-methyl-1,1-dioxidotetrahydro-2H-thiopyran-4-yl)imidazo[1,2-a]pyrimidine-2-carboxamide]	0.033

These reach a lower IC50. Values come first.

IC50 [µM]	SMILES
0.011	Cc1cc(Oc2ncc(Cl)cc2OCC(F)F)nn2cc(C(=O)NC3(C)CCS(=O)(=O)CC3)nc12 [Example 173, 6-[[5-chloro-3-(2,2-difluoroethoxy)-2-pyridyl]oxy]-8-methyl-N-(4-methyl-1,1-dioxo-thian-4-yl)imidazo[1,2-b]pyridazine-2-carboxamide]
0.014	Cc1cc(Oc2ncc(F)cc2OCC(F)F)nn2cc(C(=O)N[C@H]3CCCC(F)(F)[C@@H]3O)nc12 [Example 174, N-((1S,2R)-3,3-difluoro-2-hydroxycyclohexyl)-6-((3-(2,2-difluoroethoxy)-5-fluoropyridin-2-yl)oxy)-8-methylimidazo[1,2-b]pyridazine-2-carboxamide]
0.0004	CC1(NC(=O)c2nc3cc(Cl)c(Oc4ncc(Cl)cc4OCC(F)F)nn3c2Cl)CS(=O)(=O)C1 [Example 175, 3,7-dichloro-6-[[5-chloro-3-(2,2-difluoroethoxy)-2-pyridyl]oxy]-N-(3-methyl-1,1-dioxo-thietan-3-yl)imidazo[1,2-b]pyridazine-2-carboxamide]
0.011	CC1(NC(=O)c2cn3nc(OCc4ncc(F)cc4OCC(F)(F)F)ccc3n2)CCS(=O)(=O)CC1 [Example 182, 6-[[5-Fluoro-3-(2,2,2-trifluoroethoxy)-2-pyridyl]methoxy]-N-(4-methyl-1,1-dioxo-thian-4-yl)imidazo[1,2-b]pyridazine-2-carboxamide]
